Experimental data published in paper PMC8510601, “Discovery of benzamide-hydroxypyridinone hybrids as potent multi-targeting agents for the treatment of Alzheimer's disease” (Journal of Enzyme Inhibition and Medicinal Chemistry, 2021).

Key:
[1] = target: T1, MAO-B (Homo sapiens, UniProt P27338); experiment: Human MAO-B inhibition assay; format: biochemical; conditions: for inhibition at 0.1 µM: 100 nM, read-out: Inhibitory rate ± SEM (%, 100 nM); for inhibition at 1 µM: read-out: Inhibitory rate ± SEM (%, 1 μM); for IC50: ± SEM, read-out: IC50 against MAO-B
T1 sequence (P27338 1-520): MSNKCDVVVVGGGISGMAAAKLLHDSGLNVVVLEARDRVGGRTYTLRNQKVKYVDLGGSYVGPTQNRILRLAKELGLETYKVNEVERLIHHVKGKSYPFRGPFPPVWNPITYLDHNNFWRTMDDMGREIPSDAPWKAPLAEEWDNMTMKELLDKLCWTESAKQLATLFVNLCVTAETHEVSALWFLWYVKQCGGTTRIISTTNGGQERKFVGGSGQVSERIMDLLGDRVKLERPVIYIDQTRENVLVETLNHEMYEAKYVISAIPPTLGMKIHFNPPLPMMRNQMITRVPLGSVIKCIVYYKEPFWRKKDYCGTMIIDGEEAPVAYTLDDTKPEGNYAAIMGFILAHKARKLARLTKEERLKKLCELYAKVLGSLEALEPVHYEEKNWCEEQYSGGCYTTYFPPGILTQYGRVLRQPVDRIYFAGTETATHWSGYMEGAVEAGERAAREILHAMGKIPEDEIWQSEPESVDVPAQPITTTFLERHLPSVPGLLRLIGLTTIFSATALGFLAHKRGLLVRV

[2] = pKa determination by spectrophotometric titration; conditions: 0.1 M KCl aqueous solution, pH range 2.0–10.5, 25 °C
[3] = Iron-chelating activity test: affinity constants for Fe3+ and pFe3+; conditions: for Log β2 / Log β3: KCl (0.1 M): DMSO = 3:2 (v/v); for Log β1: KCl (0.1 M): DMSO = 9:1 (v/v); for pFe^3+: pH 7.4, [Fe3+]total = 10^−6 M, [ligand]total = 10^−5 M, calculated from pKa and log β measured in KCl/DMSO

Structure (SMILES) | inhibition at 0.1 µM [1] [%] | inhibition at 1 µM [1] [%] | IC50 [1] [µM] | melting point [°C] | pKa ([2]; KCl (0.1 M)) | pKa ([2]; pKa2, KCl (0.1 M)) | Log β2 [3] | Log β3 [3] | Log β1 [3] | pFe^3+ [3]
Cc1c(O)c(=O)ccn1CCNC(=O)c1ccc(OCc2cccc(Cl)c2)cc1 [Compound 8n] | 47.7 ± 6.06 | 72.4 ± 3.26 | 0.1109 ± 0.0011 | 236 to 238 | 3.32 | 9.55 | 25.95 | 34.39 | 14.64 | 18.51
Cc1c(O)c(=O)ccn1CCNC(=O)c1ccc(OCc2ccc(Cl)cc2)cc1 [Compound 8o] | 48.5 ± 4.37 | 63.6 ± 4.14 | 0.139 ± 0.00174 | – | 3.33 | 9.63 | 26.09 | 34.55 | 14.43 | 18.44
Cc1c(O)c(=O)ccn1CCNC(=O)c1ccc(OCc2cc(F)ccc2F)cc1 [Compound 8p] | 41.4 ± 2.45 | 65.1 ± 1.47 | 0.175 ± 0.00673 | 236 to 238 | 3.27 | 9.82 | 26.58 | 35.44 | 14.47 | 18.74
Cc1c(O)c(=O)ccn1CCNC(=O)c1ccc(OCc2cc(F)cc(F)c2)cc1 [Compound 8q] | 49.7 ± 4.22 | 63.9 ± 0.67 | 0.0938 ± 0.00648 | – | 3.27 | 9.82 | 26.63 | 35.73 | 14.61 | 19.01
Cc1c(O)c(=O)ccn1CCNC(=O)c1ccc(OCc2ccc(C(F)(F)F)cc2)cc1 [Compound 8r] | 46.5 ± 6.99 | 63.4 ± 4.06 | 0.1877 ± 0.00042 | 268 to 270 | 3.25 | 9.78 | 26.01 | 34.98 | 14.48 | 18.39
Cc1cccc(COc2ccc(C(=O)NCCn3ccc(=O)c(O)c3C)cc2)c1 [Compound 8s] | 49.3 ± 2.58 | 71.3 ± 1.02 | 0.1223 ± 0.00021 | – | 3.31 | 9.86 | 26.67 | 35.67 | 14.67 | 18.85
Cc1ccc(COc2ccc(C(=O)NCCn3ccc(=O)c(O)c3C)cc2)cc1 [Compound 8t] | 45.1 ± 1.62 | 64.1 ± 0.82 | 0.118 ± 0.00424 | 245 to 247 | 3.12 | 9.93 | 26.42 | 35.19 | 14.45 | 18.18
Cc1c(O)c(=O)ccn1CCNC(=O)c1ccc(OCc2ccc(C(C)C)cc2)cc1 [Compound 8u] | 41.5 ± 1.94 | 62.92 ± 0.51 | 0.128 ± 0.00396 | 247 to 249 | 3.33 | 9.58 | 25.58 | 35.36 | 14.67 | 19.35
Cc1c(O)c(=O)ccn1CCNC(=O)c1ccc(OCc2ccc(C(C)(C)C)cc2)cc1 [Compound 8v] | 48.9 ± 1.93 | 64.2 ± 1.94 | 0.124 ± 0.00132 | 245 to 247 | 3.29 | 9.56 | 25.51 | 35.20 | 14.69 | 19.25
Cc1c(O)c(=O)ccn1CCNC(=O)c1ccccc1O [Compound 8w] | 44.38 ± 0.23 | 56.43 ± 0.24 | 0.1215 ± 0.00086 | 156 to 158 | 3.47 | 9.68 | 25.69 | 34.63 | 14.45 | 18.34
Cc1c(O)c(=O)ccn1CCNC(=O)c1cccc(O)c1 [Compound 8x] | 43.63 ± 0.34 | 55.75 ± 0.03 | 0.121 ± 0.00194 | 144 to 146 | 3.28 | 9.75 | 25.93 | 34.96 | 14.67 | 18.46
Cc1c(O)c(=O)ccn1CCNC(=O)c1ccc(O)cc1 [Compound 8y] | 37.6 ± 1.01 | 55.3 ± 1.91 | – | 163 to 165 | 3.33 | 9.95 | 26.07 | 35.42 | 14.61 | 18.31
